Our source for the MIC values is patent publication US20220249447A1, “CF3-, OCF3-, SCF3-, and SF5-Containing Antibacterial Agents” (Purdue Research Foundation, priority 2019, published 2022).

The test system of one assay is MRSA ATCC 33592. Kind of assay: MIC, broth microdilution, MRSA ATCC 33592. The class given is cell-based, methicillin-resistant S. aureus. As to conditions: Staphylococcus aureus. Here is the method:
All MRSA isolates were acquired from BEI Resources. The remaining bacteria were purchased from the American Type Culture Collection (ATCC).
(§1) Bacteria were cultured in cation-adjusted Mueller Hinton Broth (for strains in Tables 1-3) or Brain Heart Infusion broth (for Enterococcus faecium) or Tryptic Soy Broth (all other bacteria) in a 96-well plate at 37° C. for at least 20 hours. The MIC was classified as the lowest concentration where no visual growth of bacteria was observed. The minimum bactericidal concentration (MBC) was tested by spotting 4 μL from wells with no growth onto Tryptic Soy Agar (TSA) plates. Plates were incubated at 37° C. for at least 18 hours before recording the MBC.
Background: Dilution methods test growth across graded concentrations, often in twofold steps.

In a further assay the test system is S. aureus. Kind of assay: MIC, broth microdilution, S. aureus. The class given is cell-based. As to conditions: Staphylococcus aureus. As to the method:
as §1

Converted amounts (≈) assume the structure as drawn.

As for `O=C(Nc1nnc(-c2cccs2)o1)c1ccc(C(F)(F)F)o1` [HSGN-169, N-(5-(thiophen-2-yl)-1,3,4-oxadiazol-2-yl)-5-(trifluoromethyl)furan-2-carboxamide], the MIC with MRSA ATCC 33592 and against S. aureus was more than 64 µg/mL throughout.
As for `O=C(Nc1nnc(-c2cccc(Cl)c2)o1)c1ccc(OC(F)(F)F)c([N+](=O)[O-])c1` [HSGN-262, N-(5-(3-chlorophenyl)-1,3,4-oxadiazol-2-yl)-3-nitro-4-(trifluoromethoxy)benzamide], the MIC against MRSA ATCC 33592 and in the assay with S. aureus was 16 µg/mL (≈ 37.3 µM) throughout.
In the case of `FC(F)(F)Sc1ccc(-n2cc(-c3nnc(-c4cccc(Cl)c4)o3)nn2)cc1` [HSGN-260], the MIC in the assay with MRSA ATCC 33592 (20 h) and with S. aureus (20 h) was more than 64 µg/mL in each case.
Consider `COc1cc(Cl)cc(-c2nnc(NC(=O)c3ccc(SC(F)(F)F)cc3)o2)c1` [HSGN-266, N-(5-(3-chloro-5-methoxyphenyl)-1,3,4-oxadiazol-2-yl)-4-((trifluoromethyl)thio)benzamide], for which the MIC against MRSA ATCC 33592 and in the assay on S. aureus was 0.5 µg/mL (≈ 1.16 µM) throughout.
`Cc1nnc(NC(=O)c2ccc(S(F)(F)(F)(F)F)cc2)o1` [HSGN-2140, N-(5-methyl-1,3,4-oxadiazol-2-yl)-4-(pentafluoro-λ^6-sulfaneyl)benzamide]: the MIC against MRSA ATCC 33592 and in the assay on S. aureus was 1 µg/mL (≈ 3.04 µM) throughout.
Take `O=C(Nc1nnc(-c2cccc(Cl)c2)o1)c1cccc(S(F)(F)(F)(F)F)c1` [HSGN-2112, N-(5-(3-chlorophenyl)-1,3,4-oxadiazol-2-yl)-3-(pentafluoro-λ^6-sulfaneyl)benzamide]: the MIC against MRSA ATCC 33592 and with S. aureus was 0.5 µg/mL (≈ 1.17 µM) each time.
`O=C(Nc1nnc(-c2cccs2)o1)c1cccc(C(F)(F)F)n1` [HSGN-184, N-(5-(thiophen-2-yl)-1,3,4-oxadiazol-2-yl)-6-(trifluoromethyl)picolinamide]: the MIC against MRSA ATCC 33592 and with S. aureus was 16 µg/mL (≈ 47 µM) each time.
In the case of `O=C(Nc1nnc(C(F)(F)F)o1)c1ccc(S(F)(F)(F)(F)F)cc1` [HSGN-2141, 4-(pentafluoro-λ^6-sulfaneyl)-N-(5-(trifluoromethyl)-1,3,4-oxadiazol-2-yl)benzamide], the minimal inhibitory concentration (MIC) against MRSA ATCC 33592 and in the assay on S. aureus was 32 µg/mL (≈ 83.5 µM) throughout.
As to `Cc1ccc(-c2nnc(NC(=O)c3ccc(SC(F)(F)F)cc3)o2)s1` [HSGN-258, N-(5-(5-methylthiophen-2-yl)-1,3,4-oxadiazol-2-yl)-4-((trifluoromethyl)thio)benzamide], the MIC against MRSA ATCC 33592 and against S. aureus was 2 µg/mL (≈ 5.19 µM) each time.
In the case of `O=C(Nc1nnc(-c2cccs2)o1)c1ccc(OC(F)F)cc1` [HSGN-143, 4-(difluoromethoxy)-N-(5-(thiophen-2-yl)-1,3,4-oxadiazol-2-yl)benzamide], the MIC in the assay on MRSA ATCC 33592 and with S. aureus was 32 µg/mL (≈ 94.9 µM) in each case.
In the case of `O=C(Nc1nnc(C2CCCC2)o1)c1ccc(S(F)(F)(F)(F)F)cc1` [HSGN-2143, N-(5-cyclopentyl-1,3,4-oxadiazol-2-yl)-4-(pentafluoro-16-sulfaneyl)benzamide], the MIC – broadly, the lowest concentration found to suppress growth – was determined as 1 µg/mL (≈ 2.61 µM) in the assay with MRSA ATCC 33592 and 2 µg/mL (≈ 5.22 µM) in the assay on S. aureus.
The matching figures for `O=C(Nc1nnc(-c2cccs2)o1)c1ccc(C(F)(F)F)nc1` [HSGN-171, N-(5-(thiophen-2-yl)-1,3,4-oxadiazol-2-yl)-6-(trifluoromethyl)nicotinamide]: 8 µg/mL (≈ 23.5 µM) and 16 µg/mL (≈ 47 µM).
Consider `O=C(Nc1nnc(-c2ccccc2F)o1)c1ccc(SC(F)(F)F)cc1` [HSGN-2114, N-(5-(2-fluorophenyl)-1,3,4-oxadiazol-2-yl)-4-((trifluoromethyl)thio)benzamide], for which the MIC in the assay with MRSA ATCC 33592 and in the assay with S. aureus was 0.5 µg/mL (≈ 1.3 µM) each time.
`O=C(Nc1nnn(Cc2ccccc2)n1)c1ccc(S(F)(F)(F)(F)F)cc1` [HSGN-2136, N-(2-benzyl-2H-tetrazol-5-yl)-4-(pentafluoro-λ^6-sulfaneyl)benzamide]: the MIC with MRSA ATCC 33592 and against S. aureus was more than 128 µg/mL throughout.
For `O=C(Nc1nnc(-c2ccccc2)o1)c1ccc(SC(F)(F)F)cc1` [HSGN-280, N-(5-phenyl-1,3,4-oxadiazol-2-yl)-4-((trifluoromethyl)thio)benzamide], the MIC in the assay on MRSA ATCC 33592 and against S. aureus was 1 µg/mL (≈ 2.74 µM) each time.
On to `COc1ccc(-c2nnc(NC(=O)c3ccc(SC(F)(F)F)cc3)o2)cc1` [HSGN-207, N-(5-(4-methoxyphenyl)-1,3,4-oxadiazol-2-yl)-4-((trifluoromethyl)thio)benzamide], for which the MIC amounted to 8 µg/mL (≈ 20.2 µM) in the assay on MRSA ATCC 33592 and 16 µg/mL (≈ 40.5 µM) with S. aureus.
The matching figures for `O=C(Nc1nnc(-c2ccc(F)cc2)o1)c1ccc(SC(F)(F)F)cc1` [HSGN-281, N-(5-(4-fluorophenyl)-1,3,4-oxadiazol-2-yl)-4-((trifluoromethyl)thio)benzamide]: 0.0625 µg/mL (≈ 0.163 µM) and 0.0625 µg/mL (≈ 0.163 µM).
The corresponding values for `O=C(Nc1nnc(-c2cccs2)o1)c1ccc(C(F)(F)F)cn1` [HSGN-172, N-(5-(thiophen-2-yl)-1,3,4-oxadiazol-2-yl)-5-(trifluoromethyl)picolinamide] are 32 µg/mL (≈ 94 µM) and 64 µg/mL (≈ 188 µM).
The corresponding values for `N#Cc1cccc(-c2nnc(NC(=O)c3ccc(SC(F)(F)F)cc3)o2)c1` [HSGN-283, N-(5-(3-cyanophenyl)-1,3,4-oxadiazol-2-yl)-4-((trifluoromethyl)thio)benzamide] are 0.0625 µg/mL (≈ 0.16 µM) and 0.0625 µg/mL (≈ 0.16 µM).
Regarding `O=C(Nc1nnc(-c2cccs2)o1)c1ncc(C(F)(F)F)s1` [HSGN-168, N-(5-(thiophen-2-yl)-1,3,4-oxadiazol-2-yl)-5-(trifluoromethyl)thiazole-2-carboxamide], the results for the MIC with MRSA ATCC 33592 and in the assay on S. aureus were 8 µg/mL (≈ 23.1 µM) and 16 µg/mL (≈ 46.2 µM), respectively.
Turning to `O=C(Nc1nnc(-c2cccs2)o1)c1cnc(C(F)(F)F)nc1` [HSGN-190, N-(5-(thiophen-2-yl)-1,3,4-oxadiazol-2-yl)-2-(trifluoromethyl)pyrimidine-5-carboxamide], the MIC against MRSA ATCC 33592 and in the assay on S. aureus was 32 µg/mL (≈ 93.8 µM) throughout.
`CCCc1nnc(NC(=O)c2ccc(S(F)(F)(F)(F)F)cc2)o1` [HSGN-2142, 4-(pentafluoro-λ^6-sulfaneyl)-N-(5-propyl-1,3,4-oxadiazol-2-yl)benzamide]: the MIC worked out at 0.5 µg/mL (≈ 1.4 µM) with MRSA ATCC 33592 and 1 µg/mL (≈ 2.8 µM) in the assay on S. aureus.
The corresponding values for `COc1ccc(Cl)cc1-c1nnc(NC(=O)c2ccc(SC(F)(F)F)cc2)o1` [HSGN-252, N-(5-(5-chloro-2-methoxyphenyl)-1,3,4-oxadiazol-2-yl)-4-((trifluoromethyl)thio)benzamide] are 1 µg/mL (≈ 2.33 µM) and 2 µg/mL (≈ 4.65 µM).
The corresponding values for `O=C(Nc1nnc(-c2ccc(C(F)(F)F)cc2)o1)c1ccc(OC(F)(F)F)cc1` [HSGN-220, 4-(trifluoromethoxy)-N-(5-(4-(trifluoromethyl)phenyl)-1,3,4-oxadiazol-2-yl)benzamide] are 0.25 µg/mL (≈ 0.599 µM) and 0.125 µg/mL (≈ 0.3 µM).
The corresponding values for `O=C(Nc1nnc(-c2ccc(Cl)cc2)o1)c1ccc(SC(F)(F)F)cc1` [HSGN-282, N-(5-(4-chlorophenyl)-1,3,4-oxadiazol-2-yl)-4-((trifluoromethyl)thio)benzamide] are 0.0625 µg/mL (≈ 0.156 µM) and 0.0625 µg/mL (≈ 0.156 µM).
As to `O=C(Nc1nnc(-c2cccs2)o1)c1ccc(SC(F)F)cc1` [HSGN-250, 4-((difluoromethyl)thio)-N-(5-(thiophen-2-yl)-1,3,4-oxadiazol-2-yl)benzamide], the MIC in the assay on MRSA ATCC 33592 was 2 µg/mL (≈ 5.66 µM); in the assay with S. aureus, 4 µg/mL (≈ 11.3 µM).
The matching figures for `O=C(Nc1nnc(-c2cccs2)o1)c1cc(C(F)(F)F)n[nH]1` [HSGN-183, N-(5-(thiophen-2-yl)-1,3,4-oxadiazol-2-yl)-3-(trifluoromethyl)-1H-pyrazole-5-carboxamide]: more than 64 µg/mL and more than 64 µg/mL.
The corresponding values for `O=C(Nc1cnn(-c2ccccc2)c1)c1ccc(S(F)(F)(F)(F)F)cc1` [HSGN-2135, 4-(pentafluoro-λ^6-sulfaneyl)-N-(1-phenyl-1H-pyrazol-4-yl)benzamide] are more than 128 µg/mL and more than 128 µg/mL.
The corresponding values for `O=S(=O)(Nc1nnc(-c2cccc(Cl)c2)o1)c1ccc(SC(F)(F)F)cc1` [HSGN-256, N-(5-(3-chlorophenyl)-1,3,4-oxadiazol-2-yl)-4-((trifluoromethyl)thio)benzenesulfonamide] are more than 64 µg/mL and more than 64 µg/mL.
With `O=C(Nc1nnc(-c2ccc(Cl)s2)o1)c1ccc(S(F)(F)(F)(F)F)cc1` [HSGN-2113, N-(5-(5-chlorothiophen-2-yl)-1,3,4-oxadiazol-2-yl)-4-(pentafluoro-λ^6-sulfaneyl)benzamide], the MIC against MRSA ATCC 33592 and in the assay on S. aureus was 0.25 µg/mL (≈ 0.579 µM) each time.
In the case of `O=C(Nc1noc(-c2ccc(C(F)(F)F)cc2)n1)c1ccc(SC(F)(F)F)cc1` [HSGN-257, N-(5-(4-(trifluoromethyl)phenyl)-1,2,4-oxadiazol-3-yl)-4-((trifluoromethyl)thio)benzamide], the MIC in the assay with MRSA ATCC 33592 and against S. aureus was more than 64 µg/mL each time.
Consider `O=C(Nc1nnc(-c2cccs2)o1)c1ccc(C(F)(F)F)s1` [HSGN-170], for which the MIC was 2 µg/mL (≈ 5.79 µM) in the assay with MRSA ATCC 33592 and 4 µg/mL (≈ 11.6 µM) with S. aureus.
The corresponding values for `O=C(Nc1nnc(-c2ccccc2Cl)o1)c1ccc(SC(F)(F)F)cc1` [HSGN-2115, N-(5-(2-chlorophenyl)-1,3,4-oxadiazol-2-yl)-4-((trifluoromethyl)thio)benzamide] are 0.5 µg/mL (≈ 1.25 µM) and 0.5 µg/mL (≈ 1.25 µM).
The matching figures for `O=C(Nc1nnc(-c2cccc(Cl)c2)o1)c1cccc(SC(F)(F)F)c1` [HSGN-2111, N-(5-(3-chlorophenyl)-1,3,4-oxadiazol-2-yl)-3-((trifluoromethyl)thio)benzamide]: 1 µg/mL (≈ 2.5 µM) and 1 µg/mL (≈ 2.5 µM).
As to `CSc1ccc(C(=O)Nc2nnc(-c3cccs3)o2)cc1` [HSGN-251, 4-(methylthio)-N-(5-(thiophen-2-yl)-1,3,4-oxadiazol-2-yl)benzamide], the MIC is 8 µg/mL (≈ 25.2 µM) against MRSA ATCC 33592 and 16 µg/mL (≈ 50.4 µM) with S. aureus.
